One assay has as its target cathepsin L (Rattus norvegicus, UniProt P07154). Nature of the assay: In vitro assay for cathepsin L inhibition. Type of assay: biochemical. The settings on record: r rat cathepsin L; pH 5.0; 10 min incubation at room temperature; substrate N-CBZ-Phe-Arg-AMC (1 mM, 20 μl). The method, then: To a 170 μl of enzyme-buffer mixture (enzyme: r rat cathepsin L, diluted to give approximate 15 F units/min, buffer: 58.8 mM sodium citrate, 1.18 mM EDTA, 235 mM sodium chloride, 5 mM DTT, pH 5.0) a 10 μL of inhibitor (dissolved in DMSO) was added. After 10 min of incubation at room temperature, a 20 μl of 1 mM substrate (N-CBZ-Phe-Arg-AMC, dissolved in DMSO) was added to initiate reaction. Reading is followed up for 10 min at the fluoroscan reader (excitation at 380 nm emission at 460 nm).
(§1) A plot of percentage of inhibition vs inhibitor concentration is obtained, and IC50 is determined using a linear regression calculation (concentration of inhibitor which will give 50% inhibition).

The target in another assay is cathepsin B (Rattus norvegicus, UniProt P00787). The assay can be described thus: In vitro assay for cathepsin B inhibition. The settings on record: r rat cathepsin B; pH 5.1; 10 min incubation at room temperature; substrate N-CBZ-Phe-Arg-AMC (5 mM, 20 μl). Type of assay: biochemical. The method, then:
The compounds of formula I were tested for inhibition of cathepsin B using the known method (A. J. Barret et al., Biochem. J. 1982, 201, 189-198). To a 170 μl of enzyme-buffer mixture (enzyme: r rat cathepsin B, diluted to give approximate 10 F units/min, buffer: 56 mM sodium acetate, 1.124 mM EDTA, 10 mM DTT, pH 5.1) a 10 μL of inhibitor (dissolved in DMSO) was added. After 10 min of incubation at room temperature, a 20 μl of 5 mM substrate (N-CBZ-Phe-Arg-AMC, dissolved in DMSO) was added to initiate reaction. Reading is followed up for 10 min at the fluoroscan reader (excitation at 380 nm emission at 460 nm).
as §1

By IC50 is commonly meant the concentration needed to halve the response being measured.

Chain of cathepsin L (P07154 114-334): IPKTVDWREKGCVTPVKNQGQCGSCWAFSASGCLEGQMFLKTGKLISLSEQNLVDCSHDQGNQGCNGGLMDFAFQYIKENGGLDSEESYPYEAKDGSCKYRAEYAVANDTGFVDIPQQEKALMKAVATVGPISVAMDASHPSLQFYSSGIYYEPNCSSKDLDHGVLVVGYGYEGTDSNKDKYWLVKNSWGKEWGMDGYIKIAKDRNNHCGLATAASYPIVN
Chain of cathepsin B (P00787 80-333 limits assumed): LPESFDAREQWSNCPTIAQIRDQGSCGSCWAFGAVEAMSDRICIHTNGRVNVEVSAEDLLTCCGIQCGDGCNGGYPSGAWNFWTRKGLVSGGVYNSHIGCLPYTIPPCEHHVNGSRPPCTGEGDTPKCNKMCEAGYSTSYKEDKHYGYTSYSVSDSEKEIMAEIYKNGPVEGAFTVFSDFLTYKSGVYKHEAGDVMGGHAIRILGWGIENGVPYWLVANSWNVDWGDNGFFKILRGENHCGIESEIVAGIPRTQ

Take `O=C(N[C@@H](Cc1ccc2ccccc2c1)C(=O)N[C@@H]1C(=O)N[C@H]1Oc1ccc2ccccc2c1)OCc1ccccc1` [Example 13A, (3S,4S)-3-{N-benzyloxycarbonyl-β-(2-naphthyl)-L-alanyl}amino-4-(2-naphthoxy)-azetidin-2-one]: the concentration for half-maximal inhibition (IC50) on cathepsin L came to 2.9 nM; on cathepsin B, 1800 nM.
For `O=C(N[C@@H](Cc1ccc2ccccc2c1)C(=O)N[C@@H]1C(=O)N[C@H]1Oc1ccccc1)OCc1ccccc1` [Example 11, (3S,4S)-3-{N-benzyloxycarbonyl-β-(2-naphthyl)-L-alanyl}-amino-4-phenoxy-azetidin-2-one], the IC50 on cathepsin L worked out at 15 nM; on cathepsin B, 900 nM.
In the same order, the values of `COc1ccc(C[C@H](NC(=O)CCc2ccccc2)C(=O)N[C@@H]2C(=O)N[C@H]2Oc2ccccc2)cc1OC` [Example 30, (3S, 4s)-3-[2S-2-(3-phenylpropionoyl)amino-2-(3,4-dimethoxyphenyl)methyl-acetamido]-4-phenoxy-azetidin-2-one] are 1600 nM and 48000 nM.
`O=C(CCc1ccccc1)N[C@@H](Cc1ccc2ccccc2c1)C(=O)N[C@@H]1C(=O)NC1OC1CCCCC1` (stereo partly drawn) [Example 19, (3S,4SR)-3{N-(3-phenylpropionoyl)-β-(2-naphthyl)-L-alanyl}-amino-4-cyclohexyloxy-azetidin-2-one]: the IC50 at cathepsin L came out at 390 nM; on cathepsin B, 1950 nM.
For `CC(=O)O[C@@H]1NC(=O)[C@H]1NC(=O)[C@H](Cc1ccc2ccccc2c1)NC(=O)OCc1ccccc1` [Example 8, (3S,4S)-3-(N-benzyloxycarbonyl-β-(2-naphthyl)-L-alanyl)-amino-4-acetoxy-azetidin-2-one], the 50% inhibitory concentration (IC50) is 13.5 nM on cathepsin L and 16400 nM against cathepsin B.
Take `CC(C)(C)C[C@H](NC(=O)CCc1ccccc1)C(=O)N[C@@H]1C(=O)N[C@H]1Oc1ccccc1` [Example 28, (3S, 4S)-3-[2S-2-(3-phenylpropionoyl)amino-2-t-butylmethyl-acetamido]-4-phenoxy-azetidin-2-one]: the IC50 came to 11400 nM at cathepsin L and 45000 nM against cathepsin B.
In the same order, the values of `CC(C)(C)OC[C@H](NC(=O)OCc1ccccc1)C(=O)N[C@@H]1C(=O)N[C@@H]1Oc1ccccc1` [Example 25, (3S,4R)-3-(2S-2-benzyloxycarbonylamino-2-t-butyloxymethyl-acetamido)-4-phenoxy-azetidin-2-one] are 2190 nM and 11000 nM.
The matching figures for `CC(=O)O[C@@H]1NC(=O)[C@H]1NC(=O)[C@H](Cc1cccnc1)NC(=O)OCc1ccccc1` [Example 5, (3S,4S)-3-{N-benzyloxycarbonyl-β-(3-pyridyl)-L-alanyl}-amino-4-acetoxy-azetidin-2-one]: 8260 nM and above 50000 nM.
Consider `Cc1cccc(O[C@H]2NC(=O)[C@H]2NC(=O)[C@H](Cc2ccc3ccccc3c2)NC(=O)OCc2ccccc2)c1` [Example 12B, (3S,4R)-3-{N-benzyloxycarbonyl-β-(2-naphthyl)-L-alanyl}-amino-4-(3-methylphenoxy)-azetidin-2-one], for which the IC50 against cathepsin L was determined as 0.4 nM; at cathepsin B, 80 nM.
In the same order, the values of `CC(=O)O[C@@H]1NC(=O)[C@H]1NC(=O)[C@H](NC(=O)OCc1ccccc1)c1ccccc1` [Example 2, (3S,4S)-3-(N-benzyloxycarbonyl-D-phenylglycyl)-amino-4-acetoxy-azetidin-2-one] are above 50000 nM and above 50000 nM.
In the same order, the values of `CC(=O)O[C@@H]1NC(=O)[C@H]1NC(=O)[C@H](Cc1cccc(F)c1)NC(=O)OCc1ccccc1` [Example 9, (3S,4S)-3-{N-benzyloxycarbonyl-β-(3-fluorophenyl)-L-alanyl}-amino-4-acetoxy-azetidin-2-one] are 341 nM and 18800 nM.
In the same order, the values of `CC(=O)O[C@@H]1NC(=O)[C@H]1NC(=O)[C@H](CCc1ccccc1)NC(=O)OCc1ccccc1` [Example 4, (3S,4S)-3-(N-benzyloxycarbonyl-L-homophenylalanyl)-amino-4-acetoxy-azetidin-2-one] are 11400 nM and above 50000 nM.
For the compound `CC(OC(C)(C)C)[C@H](NC(=O)OCc1ccccc1)C(=O)N[C@@H]1C(=O)N[C@@H]1Oc1ccccc1` (stereo partly drawn) [Example 26, (3S, 4R)-3-[2S-2-benzyloxycarbonylamino-2-(1-t-butyloxyethyl)-acetamido]-4-phenoxy-azetidin-2-one], the 50% inhibitory concentration (IC50) against cathepsin L was 10700 nM; at cathepsin B, above 50000 nM.
In the same order, the values of `CC(=O)O[C@@H]1NC(=O)[C@H]1NC(=O)C(Cc1cccs1)NC(=O)OCc1ccccc1` (mixture of isomers) [Example 7, (3S,4S)-3-(N-benzyloxycarbonyl-β-(2-thienyl)-DL-alanyl)-amino-4-acetoxy-azetidin-2-one] are 2320 nM and 28600 nM.
In the same order, the values of `O=C(N[C@@H](Cc1ccc2ccccc2c1)C(=O)N[C@@H]1C(=O)N[C@@H]1Oc1ccc2ccccc2c1)OCc1ccccc1` [Example 13B, (3S,4R)-3-{N-benzyloxycarbonyl-β-(2-naphthyl)-L-alanyl}-amino-4-(2-naphthoxy)-azetidin-2-one] are 0.11 nM and 71.5 nM.
Take `CC(=O)O[C@@H]1NC(=O)[C@H]1NC(=O)[C@H](Cc1ccc2ccccc2c1)NS(=O)(=O)/C=C/c1ccccc1` [Example 20, (3S,4S)-3-{N-(trans-2-phenyl-eth-1-enesulfonyl)-β-(2-naphthyl)-L-alanyl}-amino-4-acetoxy-azetidin-2-one]: the 50% inhibitory concentration (IC50) against cathepsin L turned out to be 79 nM; at cathepsin B, 395 nM.
The matching figures for `CC(C)(C)[C@H](NC(=O)CCc1ccccc1)C(=O)N[C@@H]1C(=O)N[C@H]1Oc1ccccc1` [Example 29, (3S, 4S)-3-[2S-2-(3-phenylpropionoyl)amino-2-t-butyl-acetamido]-4-phenoxy-azetidin-2-one]: above 50000 nM and above 50000 nM.
The matching figures for `CC(=O)O[C@@H]1NC(=O)[C@H]1NC(=O)C(NC(=O)OCc1ccccc1)c1ccccc1` (mixture of isomers) [Example 3, (3S,4S)-3-(N-benzyloxycarbonyl-DL-phenylglycyl)-amino-4-acetoxy-azetidin-2-one]: 43100 nM and above 50000 nM.
Turning to `O=C(CCc1ccccc1)NC(Cc1ccc2ccccc2c1)C(=O)NC1C(=O)NC1SCCO` [Example 17, (3S,4SR)-3-{N-(3-phenylpropionoyl)-β-(2-naphthyl)-L-alanyl}-amino-4-(2-hydroxyethylthio)-azetidin-2-one], the IC50 on cathepsin L amounted to 400 nM; on cathepsin B it was 10100 nM.
In the same order, the values of `CC(C)(C)C[C@H](NC(=O)OCc1ccccc1)C(=O)N[C@@H]1C(=O)N[C@H]1Oc1ccccc1` [Example 27, (3S, 4S)-3-(2S-2-benzyloxycarbonylamino-2-t-butylmethyl-acetamido)-4-phenoxy-azetidin-2-one] are 2300 nM and 23000 nM.
In the same order, the values of `Cc1cccc(O[C@@H]2NC(=O)[C@H]2NC(=O)[C@H](Cc2ccc3ccccc3c2)NC(=O)OCc2ccccc2)c1` [Example 12A, (3S,4S)-3{N-benzyloxycarbonyl-β-(2-naphthyl)-L-alanyl}-amino-4-(3-methylphenoxy)-azetidin-2-one] are 3 nM and 380 nM.

Source of the values: patent publication US5959123A, “3,4-Disubstituted azetidin-2-one derivatives useful as cysteine proteinase regulators” (Synphar Laboratories, Inc., priority 1997, dated 1999).
